Key:
[1] = Antiproliferative activity against human MCF7 cells after 48 hrs by MTT assay; assay type: functional, cell-based; settings: MCF7, 48 h
[2] = Antiproliferative activity against human MDA-MB-231 cells after 48 hrs by MTT assay; assay type: functional, cell-based; settings: MDA-MB-231, 48 h
[3] = Antiproliferative activity against human mammary epithelial cells after 48 hrs by MTT assay; assay type: cell-based, Epithelial cell
Homo sapiens [4] = species on record: Homo sapiens; test: Inhibition of Akt in human MDA-MB-231 cells assessed as ratio of phosphorylated GSK-3beta to GAPDH expression level at 2 uM after 48 hrs by immunoblot analysis (reference value: 0.14 to 1.50); assay type: cell-based
MDA-MB-231 [5] = test: Effect on Cdk6 mRNA expression in human MDA-MB-231 cells assessed as ratio of Cdk6 to GAPDH expression level at 5 uM after 24 hrs by RT-PCR method (reference value: 1.37); assay type: functional
MDA-MB-231 [6] = test: Inhibition of Akt in human MDA-MB-231 cells after 48 hrs by ELISA; assay type: cell-based
[7] = Cell cycle arrest in human MCF7 cells assessed as accumulation at G0/G1 phase at 5 uM after 24 hrs by propidium iodide staining based flow cytometry (reference value: 83.25%); assay type: functional
MDA-MB-231 [8] = test: Effect on cyclin D1 mRNA expression in human MDA-MB-231 cells assessed as ratio of cyclin D1 to GAPDH expression level at 5 uM after 24 hrs by RT-PCR method (reference value: 0.71); assay type: functional
[9] = Cell cycle arrest in human MCF7 cells assessed as accumulation at S phase at 5 uM after 24 hrs by propidium iodide staining based flow cytometry (reference value: 4.23%); assay type: functional
Homo sapiens [10] = species on record: Homo sapiens; test: Inhibition of Akt in human MDA-MB-231 cells assessed as ratio of phosphorylated GSK-3beta to GAPDH expression level at 5 uM after 48 hrs by immunoblot analysis (reference value: 0.14 to 1.50); assay type: cell-based
Homo sapiens [11] = species on record: Homo sapiens; test: Inhibition of Akt in human MDA-MB-231 cells assessed as ratio of phosphorylated GSK-3beta to GAPDH expression level at 10 uM after 48 hrs by immunoblot analysis (reference value: 0.14 to 1.50); assay type: cell-based
MCF7 [12] = test: Induction of apoptosis in human MCF7 cells assessed as late apoptotic cells at 5 uM after 24 hrs by Annexin V-FITC/propidium iodide staining based flow cytometry (reference value: 2.3%); assay type: functional
Homo sapiens [13] = species on record: Homo sapiens; test: Inhibition of Akt in human MDA-MB-231 cells assessed as ratio of phosphorylated Akt to GAPDH expression level at 2 uM after 48 hrs by immunoblot analysis (reference value: 0.33 to 0.81); assay type: cell-based
[14] = Cell cycle arrest in human MCF7 cells assessed as accumulation at G2/M phase at 5 uM after 24 hrs by propidium iodide staining based flow cytometry (reference value: 9.29%); assay type: functional
Homo sapiens [15] = species on record: Homo sapiens; test: Inhibition of Akt in human MDA-MB-231 cells assessed as ratio of phosphorylated Akt to GAPDH expression level at 10 uM after 48 hrs by immunoblot analysis (reference value: 0.33 to 0.81); assay type: cell-based
MDA-MB-231 [16] = test: Induction of apoptosis in human MDA-MB-231 cells assessed as late apoptotic cells at 5 uM after 24 hrs by Annexin V-FITC/propidium iodide staining based flow cytometry (reference value: 1.8%); assay type: functional
MCF7 [17] = test: Induction of apoptosis in human MCF7 cells assessed as early apoptotic cells at 5 uM after 24 hrs by Annexin V-FITC/propidium iodide staining based flow cytometry (reference value: 1.6%); assay type: functional
[18] = Safety index, ratio of compound IC50 to colchicine IC50 for human mammary epithelial cells; assay type: ADME, cell-based, Epithelial cell; settings: read-out: Ratio IC50
MDA-MB-231 [19] = test: Effect on p21 mRNA expression in human MDA-MB-231 cells assessed as ratio of p21 to GAPDH expression level at 5 uM after 24 hrs by RT-PCR method (reference value: 0.02); assay type: functional
MDA-MB-231 [20] = test: Induction of apoptosis in human MDA-MB-231 cells assessed as necrotic cells at 5 uM after 24 hrs by Annexin V-FITC/propidium iodide staining based flow cytometry (reference value: 1.3%); assay type: functional
Homo sapiens [21] = species on record: Homo sapiens; test: Inhibition of Akt in human MDA-MB-231 cells assessed as ratio of phosphorylated Akt to GAPDH expression level at 5 uM after 48 hrs by immunoblot analysis (reference value: 0.33 to 0.81); assay type: cell-based
MDA-MB-231 [22] = test: Inhibition of Akt phosphorylation in human MDA-MB-231 cells after 48 hrs by immunoblot analysis; assay type: cell-based
MDA-MB-231 [23] = test: Effect on Bid gene expression in human MDA-MB-231 cells assessed as ratio of Bid to beta-actin expression level at 5 uM after 24 hrs by RT-PCR method (reference value: 0.17); assay type: functional
MDA-MB-231 [24] = test: Ratio of Bcl-2 to Bax gene expression in human MDA-MB-231 cells at 5 uM after 24 hrs by RT-PCR method (reference value: 0.03); assay type: functional
MDA-MB-231 [25] = test: Effect on cyclin E mRNA expression in human MDA-MB-231 cells assessed as ratio of cyclin E to GAPDH expression level at 5 uM after 24 hrs by RT-PCR method (reference value: 0.13); assay type: functional
MDA-MB-231 [26] = test: Effect on p53 gene expression in human MDA-MB-231 cells assessed as ratio of p53 to beta-actin expression level at 5 uM after 24 hrs by RT-PCR method (reference value: 0.22); assay type: functional
[27] = Cell cycle arrest in human MCF7 cells assessed as accumulation at sub-G1 phase at 5 uM after 24 hrs by propidium iodide staining based flow cytometry (reference value: 3.58%); assay type: functional
MDA-MB-231 [28] = test: Induction of apoptosis in human MDA-MB-231 cells assessed as early apoptotic cells at 5 uM after 24 hrs by Annexin V-FITC/propidium iodide staining based flow cytometry (reference value: 0.5%); assay type: functional
MCF7 [29] = test: Induction of apoptosis in human MCF7 cells assessed as necrotic cells at 5 uM after 24 hrs by Annexin V-FITC/propidium iodide staining based flow cytometry (reference value: 3.7%); assay type: functional
MDA-MB-231 [30] = test: Effect on p27 mRNA expression in human MDA-MB-231 cells assessed as ratio of p27 to GAPDH expression level at 5 uM after 24 hrs by RT-PCR method (reference value: 0.23); assay type: functional
MDA-MB-231 [31] = test: Effect on Cdk2 mRNA expression in human MDA-MB-231 cells assessed as ratio of Cdk2 to GAPDH expression level at 5 uM after 24 hrs by RT-PCR method (reference value: 0.26); assay type: functional
Homo sapiens [32] = species on record: Homo sapiens; test: Inhibition of Akt in human MDA-MB-231 cells assessed as ratio of phosphorylated Akt to GAPDH expression level at 100 nM after 48 hrs by immunoblot analysis (reference value: 0.33 to 0.81); assay type: cell-based
Homo sapiens [33] = species on record: Homo sapiens; test: Inhibition of Akt in human MDA-MB-231 cells assessed as ratio of phosphorylated GSK-3beta to GAPDH expression level at 100 nM after 48 hrs by immunoblot analysis (reference value: 0.14 to 1.50); assay type: cell-based
[34] = Homo sapiens, Epithelial cell, 48 h, read-out: IC50

With COC(=O)/C(=C/c1ccccc1)CN1C(=O)[C@@H](OC)[C@H]1c1ccc(Cl)cc1 the IC50 [1] was 15.2 µM, the IC50 [2] was 15.6 µM and the IC50 [3, 34] was 37.9 µM.

Molecule COC(=O)/C(=C/c1ccccc1)CN1C(=O)[C@@H](OC)[C@H]1c1ccc(Cl)cc1Cl has an IC50 [2] of 19 µM and an IC50 [3, 34] of 70 µM.

In the case of CO[C@@H]1C(=O)N(C/C(C#N)=C/c2ccccc2)[C@@H]1c1ccc2c(c1)OCO2, the IC50 [1] is reported as 10.6 µM and the IC50 [3, 34] is reported as > 100 µM.

Work on COC(=O)/C(=C/c1ccccc1)CN1C(=O)[C@@H](OC)[C@H]1c1ccc(F)cc1 yielded an IC50 [1] of 15.6 µM, an IC50 [2] of 21.8 µM and an IC50 [3, 34] of 27.9 µM.

In the case of CO[C@@H]1C(=O)N(C/C(C#N)=C/c2ccccc2)[C@@H]1c1ccc(C)cc1, the Ratio (Homo sapiens [4]) is reported as 0.04, the Ratio (MDA-MB-231 [5]) is reported as 0.51 and the inhibition (MDA-MB-231 [6]) is reported as “Dose-dependent effect”. The Activity [7] was 83%, the Ratio (MDA-MB-231 [8]) was 0.64 and the Activity [9] was 4.15%. For the same molecule, the IC50 [1] was 9.99 µM, the Ratio (Homo sapiens [10]) was 0.15 and the Ratio (Homo sapiens [11]) was 0.17. For the same molecule, the Activity (MCF7 [12]) was 12.8%, the Ratio (Homo sapiens [13]) was 0.35 and the IC50 [2] was 9.27 µM. It also gave an Activity [14] of 9.43%, a Ratio (Homo sapiens [15]) of 0.06 and an Activity (MDA-MB-231 [16]) of 4.1%. For the same molecule, the Activity (MCF7 [17]) was 9%, the selectivity ratio [18] was 10 and the Ratio (MDA-MB-231 [19]) was 0.08. The Activity (MDA-MB-231 [20]) was 1.4%, the Ratio (Homo sapiens [21]) was 0.09 and the IC50 ([3]; epithelial cell) was “Non-Toxic”. For the same molecule, the inhibition (MDA-MB-231 [22]) was “Dose-dependent effect”, the Ratio (MDA-MB-231 [23]) was 0.32 and the Ratio (MDA-MB-231 [24]) was 0.02. The Ratio (MDA-MB-231 [25]) was 0.16, the Ratio (MDA-MB-231 [26]) was 0.17 and the Activity [27] was 2.22%. The Activity (MDA-MB-231 [28]) was 1.3%, the Activity (MCF7 [29]) was 1.9% and the Ratio (MDA-MB-231 [30]) was 0.24. For the same molecule, the Ratio (MDA-MB-231 [31]) was 0.22.

For COC(=O)/C(=C/c1ccccc1)CN1C(=O)[C@@H](OC)[C@H]1c1cccc(Cl)c1, the IC50 [1] was 25.1 µM and the IC50 ([3]; epithelial cell) was “Non-Toxic”.

In the case of COC(=O)/C(=C/c1ccccc1)CN1C(=O)[C@@H](OC)[C@H]1c1cccc([N+](=O)[O-])c1, the IC50 [1] is reported as 15 µM, the IC50 [2] is reported as 14.4 µM and the IC50 ([3]; epithelial cell) is reported as “Non-Toxic”.

In the case of CO[C@@H]1C(=O)N(C/C(C#N)=C/c2ccccc2)[C@@H]1c1cccc(C)c1, the IC50 [1] is reported as 11.3 µM, the IC50 [2] is reported as 11.1 µM and the IC50 ([3]; epithelial cell) is reported as “Non-Toxic”.

With COC[C@H]1OC(=O)c2coc3c2[C@@]1(C)C1=C(C3=O)[C@@H]2CCC(=O)[C@@]2(C)C[C@H]1OC(C)=O the Ratio (Homo sapiens [32]) was 0.01 and the Ratio (Homo sapiens [33]) was 0.61.

In the case of CCOC(=O)/C(=C/c1ccccc1)CN1C(=O)[C@@H](OC)[C@H]1c1ccc(F)cc1, the IC50 [1] is reported as 18.8 µM, the IC50 [2] is reported as 14 µM and the IC50 ([3]; epithelial cell) is reported as “Non-Toxic”.

For CO[C@@H]1C(=O)N(C/C(C#N)=C/c2ccccc2)[C@@H]1c1ccc(Cl)cc1Cl, the IC50 [1] was 31.9 µM, the IC50 [2] was 17 µM and the IC50 [3, 34] was > 100 µM.

With COC(=O)/C(=C/c1ccccc1)CN1C(=O)[C@@H](OC)[C@H]1c1ccccc1 the IC50 [1] was 12.9 µM, the IC50 [2] was 11.1 µM and the IC50 ([3]; epithelial cell) was “Non-Toxic”.

— ChEMBL document CHEMBL3872232, “2-Azetidinones: Synthesis and biological evaluation as potential anti-breast cancer agents” (Eur J Med Chem, 2016)
